Results published in US20120128711A1, “ANTI-INFLAMMATORY APPROACH TO PREVENTION AND SUPPRESSION OF POST-TRAUMATIC STRESS DISORDER, TRAUMATIC BRAIN INJURY, DEPRESSION AND ASSOCIATED DISEASE STATES” (TOTAL NUTRACEUTICAL SOLUTIONS, INC., priority 2009, published 2012).
“Also recorded” adds a separate entry of the source.

Key:
[1] = test system: Drosophila melanogaster under Paraquat-induced oxidative stress; assay: Survival of Drosophila melanogaster under Paraquat-induced oxidative stress; format: in vivo; settings: 10 mM Paraquat
Experimental: The effect of Agaricus Blazei without enrichment, with Vitamin D2 enrichment, pure Vitamin D2 and control (vehicle for the delivery) on the survival rate of Drosophila melanogaster under Paraquat-induced oxidative stress condition was tested. The study focused on the control of Paraquat induced oxidative stress/biologic death. Paraquat is a very potent oxidative stress inducing chemical and causes death in animals and plants by the toxicity of released free radicals. Paraquat (10 mM concentration) (Sigma Aldrich) was used to chemically induce oxidative stress. Paraquat is the trade name for N,N′-dimethyl-4,4′-bipyridinium dichloride, a widely used herbicide. Paraquat, a viologen, is quick-acting and non-selective, killing green plant tissue on contact. It is also toxic to humans when swallowed. This is the most standard chemical used in experimental induction of oxidative stress using the Drosophila model system. It catalyzes the formation of reactive oxygen species (ROS). Paraquat will undergo redox cycling in vivo, gets reduced by an electron donor such NADPH, before being oxidized by an electron receptor such as dioxygen to produce superoxide, a major ROS.
The following materials and methods were utilized. Vials containing 10 mM Paraquat (from Sigma Aldrich) in 5 ml of 1.2% Low melting point Agarose medium were prepared. A strip of half moist filter paper was inserted in the medium (with the wet end in). Yeast paste containing 1% concentration (w/w) of the various test materials (see above) mixed to homogeneity was prepared. Yeast paste without drug was used as control. Uniform aliquot (˜300 mg) of yeast paste with or without the test material) was applied to vials in such a way that yeast paste was on the glass surface and covered the dry end (top) of the filter paper strip. Freshly enclosed wild type isogenized Canton-S males and females were collected and starved on 1% agar medium for 5-6 hours. Four males and females were transferred to the vial containing 10 mM paraquat in LMP agarose medium and yeast paste with +/− test material (8 flies per vial). 6 vials were used per experiment. Vials with flies were placed horizontally in a tray. The experiment was conducted at 25 degrees C. temperature. Flies were transferred once in 2 days and the number of flies surviving at each transfer was recorded.

[2] = test system: Alzheimer's disease (AD) model in Drosophila; assay: Survival of Alzheimer's disease (AD) model flies (UAS-hAPP;408-GAL4); format: in vivo; settings: mushroom or turmeric powder 1% w/w, Vitamin D2/D3 0.75% w/w in yeast paste, 25 degrees C
From the text: Type of Model (with specific Drosophila model of neurodegeneration, with references). The targeted over/ectopic expression of APP in the brain using a UAS promoter driven APP transgene, induced by a specific GAL4 trans-driver in the brain of a Drosophila model system, was used for this Example. Below is a reference for such over-expression of APP in the Drosophila model system and the combination gives a fully penetrant AD with limited life-span.
β-Amyloid peptides and amyloid precursor protein (APP) play a deterministic role in Alzheimer's disease (AD). […]
We determined the extension of life span in the mutant strain for each test compound. […]
A series of experiments were run according to the methods earlier reported on Paraquat induced oxidative stress and Drosophila Alzheimer's disease flies. […] We determined the extension of life span in the mutant strain for each test compound as detailed below. […]
In the meantime, yeast paste containing required concentration of compound was prepared. […] Required quantity of both yeast and compound was weighed and finely ground in a pestle and mortar. The finely ground powder was transferred to a small beaker and appropriate quantity of water was added and mixed very well to make a homogeneous paste. […]

| SMILES | effect on survival under Paraquat-induced oxidative stress (words) [1] | survivability under Paraquat-induced oxidative stress condition ([1]; 1% w/w test material in yeast paste, period of 10 days, 25 degrees C) | effect on survival under Paraquat-induced oxidative stress (words) ([1]; listed as Vitamin D2) | effect on survival of AD flies [2] |
| --- | --- | --- | --- | --- |
| C=C1CC[C@H](O)C/C1=C/C=C1\CCC[C@]2(C)[C@@H]([C@H](C)/C=C/[C@H](C)C(C)C)CC[C@@H]12 [pure Vitamin D2, ergocalciferol] | no effect on survival | 13%+/−3% | deleterious effect on the survival; also recorded: no beneficial effect | no such effect |
| C=C1CC[C@H](O)C/C1=C/C=C1\CCC[C@]2(C)[C@@H]([C@H](C)CCCC(C)C)CC[C@@H]12 [Vitamin D3, cholecalciferol] | no beneficial effect; also recorded: no effect on survival |  |  |  |
